Source: patent US20230263809A1, “FOOD SUPPLEMENT FOR ALZHEIMER” (FOLIUM BIOSCIENCES EUROPE B.V., priority 2019, published 2023)

Experiments:
[1] = Side effects on uptake of phytosterols (compared with synthetic LXRα/β activators); format: in vivo; details: side effects caused normally by synthetic LXRα/β activators
[2] = tested on: neurological behaviours; experiment: Restoring neurological behaviours on uptake of phytosterols; format: in vivo; details: uptake of the phytosterol
[3] = tested on: cholesterol absorption; details: by competing with cholesterol absorption; cited from earlier work
[4] = tested on: Amyloid-β deposits; details: in vivo; cited from earlier work

Structure (SMILES) | side effects [1] | restore neurological behaviours [2] | cholesterol lowering effect [3] | removal of the toxic clumps of Amyloid-β deposits in the brain [4]
C=CC(O)(CC[C@@H](C)[C@H]1CC[C@H]2[C@@H]3CC=C4C[C@@H](O)CC[C@]4(C)[C@H]3CC[C@]12C)C(C)C (stereo partly drawn) [24(S)-Saringosterol] | without registering any side effects | help restore neurological behaviours |  | 
C/C=C(\CC[C@@H](C)[C@H]1CC[C@H]2[C@@H]3CC=C4C[C@@H](O)CC[C@]4(C)[C@H]3CC[C@]12C)C(C)C [Fucosterol] | without registering any side effects | help restore neurological behaviours | shows a cholesterol lowering effect | 
CCCCCc1cc(O)c2c(c1)OC(C)(C)[C@@H]1CCC(C)=C[C@@H]21 [THC, Δ^9-tetrahydrocannabidiol] |  |  |  | promote the removal of the toxic clumps of Amyloid-β deposits
